Earlier results, collected in patent US20210299075A1 (priority 2020, published 2021).

Tests used:
[1] = Hendley et al.
[2] = system: herpes simplex virus, rhabdovirus, and other enveloped viruses; details: Poli et al.
[3] = system: adenovirus; details: Poli et al.; the only naked virus tested
[4] = frequent application

## CCO [ethyl alcohol]
[1]
  antiviral activity: performed poorly

## CC(=O)C(=O)O [pyruvic acid]
[2]
  antiviral activity against enveloped viruses: effective
[3]
  antiviral activity against adenovirus: not effective

## II [iodine]
[1]
  antiviral activity: all except iodine performed poorly
[4]
  irritation of the skin: too irritating to the skin

## benzalkonium chloride [benzalkonium chloride (BAK)]
[1]
  antiviral activity: performed poorly

## O=C(O)CC(O)(CC(=O)O)C(=O)O [citric acid]
[2]
  antiviral activity against enveloped viruses: effective
[3]
  antiviral activity against adenovirus: not effective

## O=C(O)CC(O)C(=O)O (stereo not drawn) [malic acid]
[2]
  antiviral activity against enveloped viruses: effective
[3]
  antiviral activity against adenovirus: not effective

## O=C(O)CCC(=O)O [succinic acid]
[2]
  antiviral activity against enveloped viruses: effective
[3]
  antiviral activity against adenovirus: not effective
